# According to US5589364A, “Recombinant production of biologically active peptides and proteins” (priority 1994, dated 1996):
# Ends that are not written are not given here.
# Experiments:
# [1] = system: Escherichia coli ATCC 25922; assay: Microdilution broth antibacterial susceptibility assay (NCCLS M7-A2), MIC; format: cell-based; settings: lowest concentration completely inhibiting growth; MHB, 16-20 hours, 35-37 C; tested in duplicate
# Experimental: (§1) Antibacterial susceptibility testing was performed using a microdilution broth assay according to the guidelines of the National Committee for Clinical Laboratory Standards (NCCLS) Document M7-A2 (NCCLS, 1990). For preparation of peptide stock solutions, the peptide powder as an acetate salt was weighed on an analytical balance and transferred to a polypropylene tube. Stock solutions were prepared at a concentration of 1.024 mg/mL (or, in the case of natural polyphemusin, 1.00 mg/mL) by dissolving the powder in autoclaved (121° C., 20 psi, 20 minutes) deionized water. The peptide solution was used immediately, stored for up to ten days at 4° C., or stored longterm at -70° C. in 1 mL aliquotes in polypropylene cryovials. Mueller-Hinton broth (MHB)(BBL® catalog number 11443) was used in microtiter plates for diluting peptide stock solutions and for diluting each bacterial inoculum. MHB 5 mL prepared tubes (BBL® catalog number 95834) were used to culture an overnight plate of bacteria to the logarithmic phase of growth for inoculating the microtiter plates.
# (§2) The bacteria used in the antimicrobial susceptibility testing are the quality control reference strains Staphylococcus aureus ATCC 29213, Escherichia coli ATCC 25922, and Pseudomonas aeruginosa ATCC 27853. Inoculum for each reference strain was prepared by taking a sample of bacteria from a 16-20 hour plate culture and inoculating into 5 mL of MHB (BBL® catalog number 95834) to an absorbance reading of approximately 0.02 at 600 nm (A600) on a Beckman DU®-64 spectrophotometer. The culture was incubated at 35°-37° C. with shaking in a New Brunswick incubator shaker (Model G25) and the growth monitored spectrophotometrically until it reached A600 of approximately 0.6; this absorbance represented approximately 1×10^8 colony-forming units per milliliter (CFUs/mL).
# (§3) The culture was then diluted to approximately 1×10^6 CFUs/mL in autoclaved MHB (BBL® catalog number 11443) to produce the parent inoculum. A sample of the parent inoculating culture was diluted in 3 mM phosphate buffer (pH 7.2) through a series of 1:10 dilutions and the 10^-4 and 10^-5 dilutions were plated, incubated overnight at 35°-37° C., and counted the next day to verify inoculum density. Microtiter plates (Corning manufacturer number 2585096) were prepared with the use of a Beckman Biomek® 1000 automated laboratory workstation in combination with manual techniques. The microtiter plate was filled with diluent broth using the Biomek® 1000 instrument. Peptide stock solution was manually added to the top drug well of the microtiter plate using a Rainin Pipetman®, Model P-200. The peptide was serially diluted in twofold dilutions using the Biomek® 1000 instrument. One hundred microliters of the standardized bacterial inoculum was added to every well of the microtiter plates (except the blanks) using an Eppendorf Repeater® Model 4780 pipet equipped with an Eppendorf 5 mL combitip (catalog number 22 26 130-4). All peptides were tested in duplicate. In addition to the test peptide, three standard peptides (Magainin 2, MSI-63, and MSI-98) and a non-treated growth control were included to validate the assay. The final concentrations of peptide solution in the microtiter wells ranged from 0.25 ug/mL to 256 ug/mL. The final concentration of bacteria in the microtiter wells was 1-5×10^5 CFUs/mL. The final solution volume in each well was 200 uL. The microtiter plates were incubated overnight (16-20 hours) at 35°-37° C. after preparation in a Precision mechanical convection oven incubator Model 30M.
# (§4) This value was determined using the unaided eye. In addition, for a permanent record, the absorbance at 630 nm was read on a Dynatech MR5000 Microplate Reader, Version 2.7, and a printed record was generated on an Epson LX800 dot-matrix printer.
# [2] = system: Pseudomonas aeruginosa ATCC 27853; assay: as above; format: cell-based; settings: lowest concentration completely inhibiting growth; MHB, 16-20 hours, 35-37 C; tested in duplicate
# Experimental: as §1, §2, §3, §4
# [3] = system: Staphylococcus aureus ATCC 29213; assay: as above; format: cell-based; settings: lowest concentration completely inhibiting growth; MHB, 16-20 hours, 35-37 C; tested in duplicate
# Experimental: as §1, §2, §3, §4
# [4] = system: E. coli ATCC strain 25922; assay: Bacterial growth inhibition assay, aliquots spotted onto a bacterial lawn; format: cell-based, Escherichia coli; settings: purified recombinant peptide at 0.4 ug/mL; half-strength trypticase soy broth agar with 50 mM sodium fluoride
# Experimental: Small aliquots of recombinant MSI-556 and other HPLC fractions from the CNBr digest of MBP-MSI-556 fusion protein were spotted onto a lawn of E. coli ATCC strain 25922 grown on a half-strength trypticase soy broth agar plate containing 50 mM sodium fluoride.
# [5] = system: reference strains Staphylococcus aureus ATCC 29213, Escherichia coli ATCC 25922, and Pseudomonas aeruginosa ATCC 27853; assay: Antimicrobial susceptibility assay as in Example 1, organism not specified per result; format: cell-based
# Experimental: Antibacterial susceptibility testing was performed using a microdilution broth assay according to the guidelines of the National Committee for Clinical Laboratory Standards (NCCLS) Document M7-A2 (NCCLS, 1990). For preparation of peptide stock solutions, the peptide powder as an acetate salt was weighed on an analytical balance and transferred to a polypropylene tube. Stock solutions were prepared at a concentration of 1.024 mg/mL (or, in the case of natural polyphemusin, 1.00 mg/mL) by dissolving the powder in autoclaved (121° C., 20 psi, 20 minutes) deionized water. […]
# as §2, with “(CFUs/mL). […]” for “(CFUs/mL).”
# This value was determined using the unaided eye. […]
substance,measurement,setting,value
NH2 --GIGKFLKKAKKFGKAGVKILKKG--OH [MSI-556],"Minimum Inhibitory Concentration, Test Organism: E. coli",[1],4 to 16 µg/mL
same,"Minimum Inhibitory Concentration, Test Organism: Pseudo. aeruginosa",[2],4 µg/mL
same,"Minimum Inhibitory Concentration, Test Organism: Staph. aureus",[3],16 µg/mL
same,Bacterial lawn growth inhibition as judged visually,[4],significant antimicrobial activity
same,Spectrum of antibacterial activity (summary of Table I),"[5]; unamidated peptides, conclusion from MIC values",broadly active against both gram-negative and gram-positive human pathogenic bacteria
NH2 --RRWCFRVCYRGFCYRKCRG--OH (H-RRWCFRVCYRGFCYRKCRG-OH; cysteine pairing not given here) [Lim1],Bioactivity in antimicrobial susceptibility assay,"[5]; HPLC-purified recombinant peptide, without reformation of the two disulfide bridges",bioactive
GIGKFLKKAKKFGKAFVKILKK-NH2 [MSI-78],"Minimum Inhibitory Concentration, Test Organism: E. coli",[1],8 µg/mL
same,"Minimum Inhibitory Concentration, Test Organism: Pseudo. aeruginosa",[2],4 to 8 µg/mL
same,"Minimum Inhibitory Concentration, Test Organism: Staph. aureus",[3],8 to 16 µg/mL
"GIGKFLHSAKKFGKAFVGEIMNS [Native Magainin 2, reference compound]","Minimum Inhibitory Concentration, Test Organism: E. coli",[1],64 to 128 µg/mL
same,"Minimum Inhibitory Concentration, Test Organism: Pseudo. aeruginosa",[2],256 µg/mL
same,"Minimum Inhibitory Concentration, Test Organism: Staph. aureus",[3],256 µg/mL
